Laboratory results from patent US10227331B2 (priority 2015, dated 2019).
pIC50: −log10 of the molar value.

How the values were obtained:
IMP-1 = IMP-1 (Serratia marcescens, UniProt P52699); test: biochemical; assay type: biochemical; details: CCF2-FA substrate, 2 hours at 25° C; read-out: IMP-1 IC50
Outline: (§1)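 IC50 values derive from 4-parameter fits of percent inhibition against inhibitor concentration on semi-log axes. Activity was monitored by fluorescence with the CCF2-FA substrate after a 2-hour, 25° C incubation of compound, enzyme and substrate.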

NDM-1 = NDM-1 (Klebsiella pneumoniae, UniProt C7C422); test: biochemical; assay type: biochemical; details: CCF2-FA substrate, 2 hours at 25° C; read-out: NDM-1 IC50
Outline: as §1

VIM-1 = VIM-1 (Pseudomonas aeruginosa (strain ATCC 15692 / DSM 22644 / CIP 104116 / JCM 14847 / LMG 12228 / 1C / PRS 101 / PAO1), UniProt A0A0F7KYQ8); test: biochemical; details: CCF2-FA substrate, 2 hours at 25° C
Outline: as §1

[1] = tested on: Escherichia coli expressing NDM-1 (CLB30005, CLB30016); assay type: cell-based; details: with imipenem 1 μg/ml; 95% inhibition of bacterial growth
Outline: (§2)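 Restoration of imipenem susceptibility (1 μg/ml imipenem) was judged by absorbance after 22–24 h at 35° C. Test compound was added to bacteria suspended 1:100 in 1.1× CAMHB from overnight blood-agar cultures.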

[2] = tested on: Klebsiella pneumoniae expressing VIM-1 (IHMA599644); assay type: cell-based; details: with imipenem 1 μg/ml; 95% inhibition of bacterial growth
Outline: as §2

[3] = tested on: Serratia marcescens expressing IMP-1 (CL5741); assay type: cell-based; details: with imipenem 1 μg/ml; 95% inhibition of bacterial growth
Outline: as §2

[4] = tested on: P. aeruginosa expressing IMP-1, efflux+ (MB9798); assay type: cell-based, Pseudomonas aeruginosa; details: for P. aeruginosa expressing IMP-1, efflux+ (MB9798) MITC95: imipenem at 2 μg/mL, in the presence of a class A, C, D serine β-lactamase inhibitor closely related to relebactam; for Efflux ratio: ratio MITC95 PA_9798/MITC95 PA_9799
Description: (§3) The strain background is Pseudomonas aeruginosa PAO1.

[5] = tested on: P. aeruginosa expressing IMP-1, efflux− (MB9799); test: Efflux: concentration of MBL inhibitor which restores susceptibility to imipenem; assay type: cell-based, Pseudomonas aeruginosa; details: imipenem at 2 μg/mL, in the presence of a class A, C, D serine β-lactamase inhibitor closely related to relebactam
Description: as §3

Chain of IMP-1 (P52699 whole entry, looked up, species assumed): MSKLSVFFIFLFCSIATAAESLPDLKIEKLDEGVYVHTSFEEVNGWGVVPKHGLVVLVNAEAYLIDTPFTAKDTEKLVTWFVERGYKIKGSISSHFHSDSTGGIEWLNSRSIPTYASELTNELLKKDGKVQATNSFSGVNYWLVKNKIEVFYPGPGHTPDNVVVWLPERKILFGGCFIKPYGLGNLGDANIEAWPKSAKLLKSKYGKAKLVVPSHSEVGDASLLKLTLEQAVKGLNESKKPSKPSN
Chain of NDM-1 (C7C422 whole entry, looked up, species assumed): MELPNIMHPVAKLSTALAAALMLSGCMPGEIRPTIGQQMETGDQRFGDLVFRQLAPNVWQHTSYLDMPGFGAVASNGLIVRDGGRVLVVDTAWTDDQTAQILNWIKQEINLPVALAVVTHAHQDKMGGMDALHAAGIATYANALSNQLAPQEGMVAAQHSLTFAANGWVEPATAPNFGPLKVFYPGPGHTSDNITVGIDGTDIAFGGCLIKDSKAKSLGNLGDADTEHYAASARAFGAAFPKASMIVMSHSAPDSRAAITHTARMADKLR

NCCS(=O)(=O)c1ccc(-c2cccc3[nH]c(=O)[nH]c23)c(-c2nnn[nH]2)c1S(N)(=O)=O.O=C(O)C(F)(F)F [Example 150, 2-((4-(2-oxo-2,3-dihydro-1H-benzo[d]imidazol-4-yl)-2-sulfamoyl-3-(1H-tetrazol-5-yl)phenyl)sulfonyl)ethanaminium 2,2,2-trifluoroacetate]
pIC50 (IMP-1): 9.03 | pIC50 (NDM-1): 9.30 | pIC50 (VIM-1): 9.36 | Escherichia coli expressing NDM-1 (CLB30016) MITC95 [1]: 3.125 µM | Klebsiella pneumoniae expressing VIM-1 (IHMA599644) MITC95 [2]: 3.125 µM | Serratia marcescens expressing IMP-1 (CL5741) MITC95 [3]: 3.125 µM | P. aeruginosa expressing IMP-1, efflux+ (MB9798) MITC95 [4]: 1.563 µM | Efflux ratio [4]: 1.00 | P. aeruginosa expressing IMP-1, efflux− (MB9799) MITC95 [5]: 1.563 µM

NCCS(=O)(=O)c1ccc(-c2ccc(-c3nn[nH]n3)cc2)c(-c2nnn[nH]2)c1S(N)(=O)=O.O=C(O)C(F)(F)F [Example 151, 2-((3-sulfamoyl-2-(1H-tetrazol-5-yl)-4′-(2H-tetrazol-5-yl)-[1,1′-biphenyl]-4-yl)sulfonyl)ethanaminium 2,2,2-trifluoroacetate]
pIC50 (IMP-1): 9.72 | pIC50 (NDM-1): 9.57 | pIC50 (VIM-1): 9.26 | Escherichia coli expressing NDM-1 (CLB30016) MITC95 [1]: 12.5 µM | Klebsiella pneumoniae expressing VIM-1 (IHMA599644) MITC95 [2]: 25 µM | Serratia marcescens expressing IMP-1 (CL5741) MITC95 [3]: 12.5 µM | P. aeruginosa expressing IMP-1, efflux+ (MB9798) MITC95 [4]: 12.5 µM | Efflux ratio [4]: 4.00 | P. aeruginosa expressing IMP-1, efflux− (MB9799) MITC95 [5]: 3.125 µM

NCCS(=O)(=O)c1ccc(-c2cnn3c2CCC3)c(-c2nnn[nH]2)c1S(N)(=O)=O.O=C(O)C(F)(F)F [Example 152, 2-((4-(5,6-dihydro-4H-pyrrolo[1,2-b]pyrazol-3-yl)-2-sulfamoyl-3-(1H-tetrazol-5-yl)phenyl)sulfonyl)ethanaminium 2,2,2-trifluoroacetate]
pIC50 (IMP-1): 8.32 | pIC50 (NDM-1): 8.23 | pIC50 (VIM-1): 8.70 | Escherichia coli expressing NDM-1 (CLB30016) MITC95 [1]: 3.125 µM | Klebsiella pneumoniae expressing VIM-1 (IHMA599644) MITC95 [2]: 6.25 µM | Serratia marcescens expressing IMP-1 (CL5741) MITC95 [3]: 6.25 µM | P. aeruginosa expressing IMP-1, efflux+ (MB9798) MITC95 [4]: 50 µM | Efflux ratio [4]: 31.99 | P. aeruginosa expressing IMP-1, efflux− (MB9799) MITC95 [5]: 1.563 µM

Cn1cc2cc(-c3ccc(S(=O)(=O)CCN)c(S(N)(=O)=O)c3-c3nnn[nH]3)ccc2n1.O=C(O)C(F)(F)F [Example 153, 2-((4-(2-methyl-2H-indazol-5-yl)-2-sulfamoyl-3-(1H-tetrazol-5-yl)phenyl)sulfonyl)ethanaminium 2,2,2-trifluoroacetate]
pIC50 (IMP-1): 9.34 | pIC50 (NDM-1): 9.23 | pIC50 (VIM-1): 9.51 | Escherichia coli expressing NDM-1 (CLB30016) MITC95 [1]: 1.563 µM | Klebsiella pneumoniae expressing VIM-1 (IHMA599644) MITC95 [2]: 3.125 µM | Serratia marcescens expressing IMP-1 (CL5741) MITC95 [3]: 3.125 µM | P. aeruginosa expressing IMP-1, efflux+ (MB9798) MITC95 [4]: 6.25 µM | Efflux ratio [4]: 4.00 | P. aeruginosa expressing IMP-1, efflux− (MB9799) MITC95 [5]: 1.563 µM

Cn1cc2ccc(-c3ccc(S(=O)(=O)CCN)c(S(N)(=O)=O)c3-c3nnn[nH]3)cc2n1.O=C(O)C(F)(F)F [Example 154, 2-((4-(2-methyl-2H-indazol-6-yl)-2-sulfamoyl-3-(1H-tetrazol-5-yl)phenyl)sulfonyl)ethanaminium 2,2,2-trifluoroacetate]
pIC50 (IMP-1): 9.17 | pIC50 (NDM-1): 8.95 | pIC50 (VIM-1): 9.37 | Escherichia coli expressing NDM-1 (CLB30016) MITC95 [1]: 3.125 µM | Klebsiella pneumoniae expressing VIM-1 (IHMA599644) MITC95 [2]: 6.25 µM | Serratia marcescens expressing IMP-1 (CL5741) MITC95 [3]: 3.125 µM | P. aeruginosa expressing IMP-1, efflux+ (MB9798) MITC95 [4]: 12.5 µM | Efflux ratio [4]: 8.00 | P. aeruginosa expressing IMP-1, efflux− (MB9799) MITC95 [5]: 1.563 µM

NCCS(=O)(=O)c1ccc(-c2ccc3[nH]c(=O)oc3c2)c(-c2nnn[nH]2)c1S(N)(=O)=O.O=C(O)C(F)(F)F [Example 155, 2-((4-(2-oxo-2,3-dihydrobenzo[d]oxazol-6-yl)-2-sulfamoyl-3-(1H-tetrazol-5-yl)phenyl)sulfonyl)ethanaminium 2,2,2-trifluoroacetate]
pIC50 (IMP-1): 9.65 | pIC50 (NDM-1): 9.09 | pIC50 (VIM-1): 9.54 | Escherichia coli expressing NDM-1 (CLB30016) MITC95 [1]: 0.7813 µM | Klebsiella pneumoniae expressing VIM-1 (IHMA599644) MITC95 [2]: 1.563 µM | Serratia marcescens expressing IMP-1 (CL5741) MITC95 [3]: 1.563 µM | P. aeruginosa expressing IMP-1, efflux+ (MB9798) MITC95 [4]: 3.125 µM | Efflux ratio [4]: 4.00 | P. aeruginosa expressing IMP-1, efflux− (MB9799) MITC95 [5]: 0.7813 µM
